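Method: 48-hour compound exposure of cells in 96-well plates, five concentrations, linear interpolation of endpoints. GI50: concentration for 50% inhibition of growth.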 The source made the active and inactive calls. Cut-off read from the data, not from the text of the source: active = GI50 up to about 1.1 µM and inactive = higher.
Tests used:
Assay in all cases: NCI anticancer screen, dose series, 48 h
[1] = test system: A498
[2] = test system: BT-549
[3] = test system: KM12
[4] = test system: LOX IMVI
[5] = test system: M14
[6] = test system: MCF7
[7] = test system: MDA-MB-231
[8] = test system: MDA-MB-435
[9] = test system: MOLT-4
[10] = test system: Malme-3M
[11] = test system: NCI-H226
[12] = test system: NCI/ADR-RES
[13] = test system: OVCAR-5
[14] = test system: RPMI-8226
[15] = test system: SK-MEL-2
[16] = test system: SK-OV-3
[17] = test system: SNB-75
[18] = test system: U-251
[19] = test system: UACC-257
[20] = test system: UACC-62

Measured: GI50

O=C(/C=C/c1ccc(O)cc1)c1ccc(O)cc1 [4,4'-DIHYDROXYCHALCONE]
inactive: [1] 31 µM | [2] 32.6 µM | [3] 11.9 µM | [4] 11.4 µM | [5] 18.8 µM | [6] 32.9 µM | [7] 43.7 µM | [8] 40.2 µM | [9] 19.3 µM | [10] 27.7 µM | [11] 16.8 µM | [12] 21.6 µM | [13] 33.3 µM | [14] 11.2 µM | [15] 19.6 µM | [16] 42.6 µM | [17] 20.9 µM | [18] 18 µM | [19] 29.5 µM | [20] 25.5 µM

O=[N+]([O-])O [NITRIC ACID]
inactive: [1] > 100 µM | [2] > 100 µM | [3] > 100 µM | [4] > 100 µM | [5] > 100 µM | [6] > 100 µM | [7] > 100 µM | [8] > 100 µM | [9] > 100 µM | [10] > 100 µM | [11] > 100 µM | [12] > 100 µM | [13] > 100 µM | [14] > 100 µM | [15] > 100 µM | [16] > 100 µM | [17] > 100 µM | [18] > 100 µM | [19] > 100 µM | [20] > 100 µM
